In ChEMBL document CHEMBL1201862, “PubChem BioAssay data set” (2004):
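How tested: cells in 96-well plates exposed to compound for 48 hours at five concentrations. GI50 is the concentration that inhibits growth by half.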 Activity calls are given as the source filed them. No stated cut-off is given here; in the data, active = GI50 up to about 1.1 µM and inactive = higher. Peptide text beside a SMILES is read from it. * marks the point of attachment. OSu = O=C1CCC(=O)N1O*

Columns and labels:
Test in all cases: NCI tumour cell line growth inhibition, 48 h
786-0 = system: 786-0
DU-145 = system: DU-145
EKVX = system: EKVX
K562 = system: K562
MDA-MB-231 = system: MDA-MB-231
MDA-MB-435 = system: MDA-MB-435
MOLT-4 = system: MOLT-4
NCI-H23 = system: NCI-H23
NCI-H460 = system: NCI-H460
NCI/ADR-RES = system: NCI/ADR-RES
OVCAR-3 = system: OVCAR-3
OVCAR-4 = system: OVCAR-4
PC-3 = system: PC-3
SF-295 = system: SF-295
SK-MEL-5 = system: SK-MEL-5
SK-OV-3 = system: SK-OV-3
SNB-19 = system: SNB-19
SR = system: SR
SW-620 = system: SW-620
BT-549 = system: BT-549

SMILES | GI50 (786-0) | GI50 (DU-145) | GI50 (EKVX) | GI50 (K562) | GI50 (MDA-MB-231) | GI50 (MDA-MB-435) | GI50 (MOLT-4) | GI50 (NCI-H23) | GI50 (NCI-H460) | GI50 (NCI/ADR-RES) | GI50 (OVCAR-3) | GI50 (OVCAR-4) | GI50 (PC-3) | GI50 (SF-295) | GI50 (SK-MEL-5) | GI50 (SK-OV-3) | GI50 (SNB-19) | GI50 (SR) | GI50 (SW-620) | GI50 (BT-549)
Nc1nc2c(ncn2C2C=CC(COS(N)(=O)=O)C2)c(=O)[nH]1 (stereo not given) | > 100 µM (inactive) | > 100 µM (inactive) | > 100 µM (inactive) | > 100 µM (inactive) | > 100 µM (inactive) | > 100 µM (inactive) | > 100 µM (inactive) | > 100 µM (inactive) | > 100 µM (inactive) | > 100 µM (inactive) | > 100 µM (inactive) | > 100 µM (inactive) | > 100 µM (inactive) | > 100 µM (inactive) | > 100 µM (inactive) | > 100 µM (inactive) | > 100 µM (inactive) | > 100 µM (inactive) | > 100 µM (inactive) | –
CN1C2=C(CC3=C1CC(C)(C)CC3=O)C(=O)CC(C)(C)C2 | > 100 µM (inactive) | – | > 100 µM (inactive) | > 100 µM (inactive) | – | – | > 100 µM (inactive) | > 100 µM (inactive) | > 100 µM (inactive) | > 100 µM (inactive) | > 100 µM (inactive) | > 100 µM (inactive) | > 100 µM (inactive) | – | > 100 µM (inactive) | > 100 µM (inactive) | > 100 µM (inactive) | > 100 µM (inactive) | > 100 µM (inactive) | > 100 µM (inactive)
COC(=O)CC(SCCO)SCCO | > 100 µM (inactive) | > 100 µM (inactive) | > 100 µM (inactive) | > 100 µM (inactive) | > 100 µM (inactive) | > 100 µM (inactive) | > 100 µM (inactive) | > 100 µM (inactive) | 70.3 µM (inactive) | > 100 µM (inactive) | > 100 µM (inactive) | > 100 µM (inactive) | > 100 µM (inactive) | > 100 µM (inactive) | > 100 µM (inactive) | > 100 µM (inactive) | > 100 µM (inactive) | > 100 µM (inactive) | > 100 µM (inactive) | –
COc1cc(C2c3cc4c(cc3OC(N3CCOCC3)C2C)OCO4)ccc1O (stereo not given) | 18.4 µM (inactive) | 28.7 µM (inactive) | 36.1 µM (inactive) | 4.35 µM (inactive) | – | 2.81 µM (inactive) | 6.25 µM (inactive) | 28.6 µM (inactive) | 12 µM (inactive) | 5.96 µM (inactive) | 7.62 µM (inactive) | 50.9 µM (inactive) | 7.28 µM (inactive) | 4.31 µM (inactive) | 9.53 µM (inactive) | – | 24.4 µM (inactive) | 5.66 µM (inactive) | 6.3 µM (inactive) | 10.3 µM (inactive)
COc1ccccc1N(CN1C(=O)CCC1C(=O)O)C(C)=O (stereo not given) | > 100 µM (inactive) | > 100 µM (inactive) | > 100 µM (inactive) | > 100 µM (inactive) | > 100 µM (inactive) | > 100 µM (inactive) | > 100 µM (inactive) | > 100 µM (inactive) | > 100 µM (inactive) | > 100 µM (inactive) | > 100 µM (inactive) | > 100 µM (inactive) | > 100 µM (inactive) | > 100 µM (inactive) | > 100 µM (inactive) | > 100 µM (inactive) | > 100 µM (inactive) | 72.6 µM (inactive) | > 100 µM (inactive) | –
N#C/C(=C/n1c(=S)[nH]c2ccccc21)C(N)=O | > 100 µM (inactive) | > 100 µM (inactive) | > 100 µM (inactive) | > 100 µM (inactive) | > 100 µM (inactive) | > 100 µM (inactive) | > 100 µM (inactive) | > 100 µM (inactive) | > 100 µM (inactive) | > 100 µM (inactive) | > 100 µM (inactive) | > 100 µM (inactive) | > 100 µM (inactive) | > 100 µM (inactive) | > 100 µM (inactive) | > 100 µM (inactive) | > 100 µM (inactive) | > 100 µM (inactive) | > 100 µM (inactive) | –
Fc1ccc(-c2sc(-c3cccs3)cc2Cc2cccs2)cc1 | > 100 µM (inactive) | > 100 µM (inactive) | > 100 µM (inactive) | > 100 µM (inactive) | > 100 µM (inactive) | > 100 µM (inactive) | 31.1 µM (inactive) | > 100 µM (inactive) | > 100 µM (inactive) | > 100 µM (inactive) | > 100 µM (inactive) | > 100 µM (inactive) | – | > 100 µM (inactive) | > 100 µM (inactive) | > 100 µM (inactive) | > 100 µM (inactive) | – | > 100 µM (inactive) | > 100 µM (inactive)
COc1c2c3c4c(c(OC)c(=O)c5c(O)cc(OC)c(c6c(OC)cc(O)c(c1=O)c63)c54)C(C(C)O)C2C(C)O (stereo not given) | 0.789 µM (active) | 2.43 µM (inactive) | 0.944 µM (active) | 0.387 µM (active) | 1.84 µM (inactive) | 0.67 µM (active) | 0.505 µM (active) | 0.798 µM (active) | 0.345 µM (active) | 0.923 µM (active) | 0.871 µM (active) | 1.32 µM (inactive) | 0.594 µM (active) | 0.562 µM (active) | 0.24 µM (active) | 1.31 µM (inactive) | 0.83 µM (active) | 1.31 µM (inactive) | 0.522 µM (active) | –
CC1=NNC(=O)C1C1C(=O)NN=C(c2c[nH]c3ccccc23)C1Br (stereo not given) | > 100 µM (inactive) | > 100 µM (inactive) | 53.5 µM (inactive) | 31.7 µM (inactive) | > 100 µM (inactive) | 48.6 µM (inactive) | 25.4 µM (inactive) | 74.5 µM (inactive) | 38.7 µM (inactive) | 47.5 µM (inactive) | 26.3 µM (inactive) | – | 25.5 µM (inactive) | 17.7 µM (inactive) | 37.8 µM (inactive) | 57.4 µM (inactive) | 37.8 µM (inactive) | – | 40.6 µM (inactive) | > 100 µM (inactive)
COC(=O)/C(=N\N)C(C(=O)C(=O)Nc1cc(Cl)ccc1Cl)c1nc2ccc([N+](=O)[O-])cc2nc1O (stereo not given) | > 100 µM (inactive) | – | 72.9 µM (inactive) | > 100 µM (inactive) | > 100 µM (inactive) | > 100 µM (inactive) | > 100 µM (inactive) | > 100 µM (inactive) | > 100 µM (inactive) | > 100 µM (inactive) | 74.3 µM (inactive) | > 100 µM (inactive) | > 100 µM (inactive) | > 100 µM (inactive) | > 100 µM (inactive) | > 100 µM (inactive) | – | – | > 100 µM (inactive) | > 100 µM (inactive)
COc1cc([C@@H]2c3cc4c(cc3C[C@H]3COC(=O)[C@@H]32)OCO4)cc2c1OCO2 [AUSTROBAILIGNAN 1] | < 0.01 µM (active) | < 0.01 µM (active) | < 0.01 µM (active) | – | < 0.01 µM (active) | < 0.01 µM (active) | < 0.01 µM (active) | < 0.01 µM (active) | < 0.01 µM (active) | < 0.01 µM (active) | < 0.01 µM (active) | 11.4 µM (inactive) | < 0.01 µM (active) | < 0.01 µM (active) | < 0.01 µM (active) | < 0.01 µM (active) | < 0.01 µM (active) | < 0.01 µM (active) | < 0.01 µM (active) | –
CC(=O)c1ccc2c(c1)oc(=O)n2CCN(C)C | > 100 µM (inactive) | – | > 100 µM (inactive) | – | > 100 µM (inactive) | > 100 µM (inactive) | > 100 µM (inactive) | > 100 µM (inactive) | > 100 µM (inactive) | > 100 µM (inactive) | > 100 µM (inactive) | – | > 100 µM (inactive) | > 100 µM (inactive) | – | > 100 µM (inactive) | – | > 100 µM (inactive) | > 100 µM (inactive) | > 100 µM (inactive)
CN(C)/C=N\c1cccc2c1NSN2 | > 100 µM (inactive) | > 100 µM (inactive) | > 100 µM (inactive) | > 100 µM (inactive) | > 100 µM (inactive) | > 100 µM (inactive) | > 100 µM (inactive) | > 100 µM (inactive) | > 100 µM (inactive) | > 100 µM (inactive) | > 100 µM (inactive) | > 100 µM (inactive) | > 100 µM (inactive) | > 100 µM (inactive) | > 100 µM (inactive) | > 100 µM (inactive) | > 100 µM (inactive) | > 100 µM (inactive) | > 100 µM (inactive) | –
COC(=O)/C=C(/OC)[C@H](C)[C@H](/C=C/c1csc(-c2csc(C(C)C)n2)n1)OC | 7.45 µM (inactive) | – | 0.721 µM (active) | 0.52 µM (active) | 4.69 µM (inactive) | 0.925 µM (active) | 0.0703 µM (active) | 0.569 µM (active) | 0.0521 µM (active) | 0.841 µM (active) | 0.35 µM (active) | 0.416 µM (active) | 0.126 µM (active) | 0.0681 µM (active) | < 0.0177 µM (active) | > 62.1 µM (inactive) | – | 0.0929 µM (active) | 0.741 µM (active) | 4.8 µM (inactive)
NCCCCC(NC(=O)C(N)Cc1ccc(O)cc1)C(=O)NC(CCCCN)C(=O)NC(CCCCN)C(=O)ON1C(=O)CCC1=O (stereo not given) (H-YKKK-OSu; configuration not given here) | > 100 µM (inactive) | – | > 100 µM (inactive) | > 100 µM (inactive) | > 100 µM (inactive) | – | > 100 µM (inactive) | > 100 µM (inactive) | > 100 µM (inactive) | – | – | – | > 100 µM (inactive) | – | > 100 µM (inactive) | – | > 100 µM (inactive) | > 100 µM (inactive) | > 100 µM (inactive) | > 100 µM (inactive)
